Article PMC10384862, “[^212Pb]Pb-eSOMA-01: A Promising Radioligand for Targeted Alpha Therapy of Neuroendocrine Tumors” (Pharmaceuticals, 2023)
Like-named read-outs stand apart in the source and are kept apart here. One block for each compound: values may come before it.

Key:
[1] = LogD7.4 by shake-flask method (n-octanol/PBS); assay type: physicochemical; settings: ^203Pb-labeled compound; n-octanol/PBS pH 7.4; n = 3
Method: Distribution coefficients (LogD7.4) were determined by the shake-flask method. A sample containing the ^203Pb-labeled compound (~1 MBq) was added to a vial containing PBS (600 µL, pH 7.4) and n-octanol (600 µL). The vial was vortexed vigorously and then centrifuged at 10,000 rpm for 10 min for phase separation. Samples (100 µL) of the n-octanol and aqueous phases were taken and measured by a gamma counter. The LogD7.4 value was calculated by using the equation: LogD7.4 = log [(counts in the n-octanol phase)/(counts in the aqueous phase)]. Measurements were performed in triplicate.

[2] = In vitro stability in PBS; assay type: physicochemical; settings: 37 °C, n = 1
Method: The ^203Pb-labeled compounds (~ 2 MBq) or the ^212Pb-labeled compounds (~ 70 kBq) were incubated in 300 µL of phosphate buffered saline (PBS; 0.1 M, pH 7.4) or mouse serum at 37 °C. The stability of the radiolabeled peptides was monitored at 1, 4, and 24 h post-incubation. The samples in PBS were directly analyzed by radio-HPLC without any pretreatment. However, samples of mouse serum were mixed with an equal volume of acetonitrile to precipitate the proteins. The solution was centrifuged twice for 5 min at 13,000 rpm, and the supernatant was analyzed by radio-HPLC using Method 1 for lead-203 and Method 2 for lead-212.

[3] = test system: H69-xenograft Balb/c nu/nu mice; assay: Biodistribution study with lead-212; assay type: in vivo, mouse; settings: 1 h p.i.; n = 4
Method: (§1) Six-week-old male Balb/c nu/nu-specific and opportunistic pathogen-tree (SOPF) mice (Janvier Labs, Le Genest-Saint-Isle, France) were housed in individually ventilated cages, with four mice per cage. Upon arrival, the mice were acclimated for 1 week with access to food and water ad libitum. Mice were subcutaneously inoculated on the right shoulder with NCI-H69 cells (5 × 10^6 cells suspended in 100 μL of 1/3 Matrigel (Corning Inc.; Corning, NY, USA) and 2/3 Hank’s balanced salt solution (Gibco; Paisley, UK). NCI-H69 xenografts were allowed to grow for 3 weeks. Tumor sizes were 391 ± 173 mm^3 at the start of the studies.
(§2) Biodistribution studies were performed to determine tumor and organ uptake of [^212Pb]Pb-DOTAM-TATE, [^212Pb]Pb-eSOMA-01, and [^212Pb]Pb-eSOMA-02. Animals (n = 4 for each time point) were injected intravenously (i.v.) with an average of 100 kBq/0.5 nmol. At 3 selected time points (1, 4, and 24 h) p.i., blood was collected via retro-orbital puncture under isoflurane/O2 anesthesia, after which the mice were sacrificed via cervical dislocation. The tumor and organs of interest (heart, lungs, liver, spleen, stomach, large intestine, small intestine, pancreas, kidneys, muscle, skin, and bone) were excised, washed in PBS, and blotted dry. To confirm receptor specificity of radioligand uptake, mice (n = 3) were co-injected with an excess (25 nmol) of the respective unlabeled peptide, and uptake in the organs of interest was determined at 24 h p.i. To determine the total injected radioactivity per animal, a calibration curve with lead-212 was established using the gamma counter. The percentage of injected dose per gram (% ID/g) was determined for each tissue sample and corrected for both the injected volume and the % ID present at the injection site (the tail).

[4] = Biodistribution study with lead-212; assay type: in vivo, mouse; settings: mouse, intravenous; for tissue uptake at 1 h: 1 h p.i.; for tissue uptake at 4 h: 4 h p.i.
Method: as §1, §2

[5] = blood, 100 kBq, n = 4, read-out: Blood uptake
[6] = intestines, 100 kBq, n = 4, read-out: Intestines uptake
[7] = kidneys, 100 kBq, n = 4, read-out: Kidneys uptake
[8] = liver, 100 kBq, n = 4, read-out: Liver uptake
[9] = lungs, 100 kBq, n = 4, read-out: Lungs uptake
[10] = pancreas, 100 kBq, n = 4, read-out: Pancreas uptake
[11] = spleen, 100 kBq, n = 4, read-out: Spleen uptake
[12] = stomach, 100 kBq, n = 4, read-out: Stomach uptake
[13] = tumor, 100 kBq, n = 4, read-out: Tumor uptake

- logD [1]: -1.36 ± 0.06
- Stability in PBS, intact labeled ligand ([2]; ^203Pb-labeled, 1 h): 70%
- Stability in PBS, intact labeled ligand ([2]; ^203Pb-labeled, 4 h): 40%
- Stability in PBS, intact labeled ligand ([2]; ^203Pb-labeled, 24 h): 15%
- remaining at 1 h ([2]; phosphate buffered saline, pH 7.4, ^203Pb-labeled, 1 h, read-out: Stability in PBS, intact labeled ligand): 70%
- remaining at 24 h ([2]; phosphate buffered saline, pH 7.4, ^203Pb-labeled, 24 h, read-out: Stability in PBS, intact labeled ligand): 15%
SMILES: C[C@@H](O)[C@H](NC(=O)[C@@H]1CSSC[C@H](NC(=O)[C@@H](Cc2ccccc2)NC(=S)Nc2ccc(CC3CN(CC(N)=O)CCN(CC(N)=O)CCN(CC(N)=O)CCN3CC(N)=O)cc2)C(=O)N[C@@H](Cc2ccc(O)cc2)C(=O)N[C@H](Cc2c[nH]c3ccccc23)C(=O)N[C@@H](CCCCN)C(=O)N[C@@H]([C@@H](C)O)C(=O)N1)C(=O)O (stereo partly drawn) [[^203Pb]Pb-eSOMA-03, metal not drawn]

- Stomach uptake [3]: 3.7 % ID/g
- tissue uptake at 1 h [4, 5]: 1.44 ± 0.24 %ID/g
- tissue uptake at 4 h [4, 5]: 0.01 ± 0.02 %ID/g
- tissue uptake at 4 h ([4]; bone, 100 kBq, n = 4, read-out: Bones uptake): 0.03 ± 0.05 %ID/g
- tissue uptake at 1 h ([4]; heart, 100 kBq, n = 4, read-out: Heart uptake): 0.54 ± 0.21 %ID/g
- tissue uptake at 1 h [4, 6]: 2.24 ± 1.05 %ID/g
- tissue uptake at 4 h [4, 6]: 0.67 ± 0.21 %ID/g
- tissue uptake at 24 h ([4]; intestines, 100 kBq, 24 h p.i., n = 4, read-out: Intestines uptake): 0.13 ± 0.09 %ID/g
- tissue uptake at 24 h ([4]; intestines, 24 h block: co-injection of excess (25 nmol) unlabeled peptide, read-out: Intestines uptake): 0.03 ± 0.03 %ID/g
- tissue uptake at 1 h [4, 7]: 81.1 ± 14.3 %ID/g
- tissue uptake at 4 h [4, 7]: 50.5 ± 3.24 %ID/g
- tissue uptake at 24 h ([4]; kidneys, 100 kBq, 24 h p.i., n = 4, read-out: Kidneys uptake): 28.2 ± 9.41 %ID/g
- tissue uptake at 24 h ([4]; kidneys, 24 h block: co-injection of excess (25 nmol) unlabeled peptide, read-out: Kidneys uptake): 37.9 ± 9.17 %ID/g
- tissue uptake at 1 h [4, 8]: 3.96 ± 0.37 %ID/g
- tissue uptake at 4 h [4, 8]: 3.09 ± 0.7 %ID/g
- tissue uptake at 24 h ([4]; liver, 100 kBq, 24 h p.i., n = 4, read-out: Liver uptake): 1.44 ± 0.94 %ID/g
- tissue uptake at 24 h ([4]; liver, 24 h block: co-injection of excess (25 nmol) unlabeled peptide, read-out: Liver uptake): 0.83 ± 0.87 %ID/g
- tissue uptake at 1 h [4, 9]: 3.49 ± 0.7 %ID/g
- tissue uptake at 4 h [4, 9]: 0.99 ± 0.24 %ID/g
- tissue uptake at 24 h ([4]; lungs, 100 kBq, 24 h p.i., n = 4, read-out: Lungs uptake): 0.2 ± 0.21 %ID/g
- tissue uptake at 1 h [4, 10]: 6.41 ± 0.7 %ID/g
- tissue uptake at 4 h [4, 10]: 1.25 ± 0.27 %ID/g
- tissue uptake at 24 h ([4]; pancreas, 100 kBq, 24 h p.i., n = 4, read-out: Pancreas uptake): 0.41 ± 0.37 %ID/g
- tissue uptake at 4 h ([4]; skin, 100 kBq, n = 4, read-out: Skin uptake): 0.25 ± 0.33 %ID/g
- tissue uptake at 1 h [4, 11]: 0.59 ± 0.06 %ID/g
- tissue uptake at 4 h [4, 11]: 0.39 ± 0.27 %ID/g
- tissue uptake at 1 h [4, 12]: 3.74 ± 0.66 %ID/g
- tissue uptake at 4 h [4, 12]: 1.17 ± 0.35 %ID/g
- tissue uptake at 24 h ([4]; stomach, 100 kBq, 24 h p.i., n = 4, read-out: Stomach uptake): 0.36 ± 0.27 %ID/g
- tissue uptake at 24 h ([4]; stomach, 24 h block: co-injection of excess (25 nmol) unlabeled peptide, read-out: Stomach uptake): 0.14 ± 0.28 %ID/g
- tissue uptake at 1 h [4, 13]: 7.93 ± 2.14 %ID/g
- tissue uptake at 4 h [4, 13]: 7.45 ± 0.29 %ID/g
- tissue uptake at 24 h ([4]; tumor, 100 kBq, 24 h p.i., n = 4, read-out: Tumor uptake): 1.02 ± 0.09 %ID/g
- Stability in PBS, intact labeled ligand ([2]; ^212Pb-labeled, 1 h): 97%
- Stability in PBS, intact labeled ligand ([2]; ^212Pb-labeled, 4 h): 95%
- Stability in PBS, intact labeled ligand ([2]; ^212Pb-labeled, 24 h): 95%
SMILES: C[C@@H](O)[C@H](NC(=O)[C@@H]1CSSC[C@H](NC(=O)[C@@H](Cc2ccccc2)NC(=O)CN2CCC(NC(=O)CN3CCN(CC(N)=O)CCN(CC(N)=O)CCN(CC(N)=O)CC3)CC2)C(=O)N[C@@H](Cc2ccc(O)cc2)C(=O)N[C@H](Cc2c[nH]c3ccccc23)C(=O)N[C@@H](CCCCN)C(=O)N[C@@H]([C@@H](C)O)C(=O)N1)C(=O)O [[^212Pb]Pb-eSOMA-02, metal not drawn]
